“And” between values parts separate entries of the source, which are not always exact repeats. Identical values can stand only once. Like-named read-outs stand apart in the source and are kept apart here.
What was measured:
[1] = tested on: PfCRT; assay: Influx of VF-6 via PfCRT into the oocyte, solutes tested as potential co-substrates; type: cell-based, Plasmodium falciparum; set-up: key: X: Compounds that have been tested as potential co-substrates but are not required for influx of VF-6 via PfCRT into the oocyte; details: X marks the solute
[2] = target: T1, PfCRT^3D7 (Plasmodium falciparum, UniProt Q8IBZ9); assay: cell-based; type: cell-based
Method in brief: (§1)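 PfCRT-expressing and control oocytes: ND96 pH 5.5 → 1.5 h at 27.5 °C → ice-cold ND96 wash → 10% SDS lysis → scintillation count.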

[3] = tested on: PfCRT; assay: Potential co-substrates tested for influx of VF-6 via PfCRT into the oocyte; type: cell-based, Plasmodium falciparum; set-up: key: X: Compounds that have been tested as potential co-substrates but are not required for influx of VF-6 via PfCRT into the oocyte
[4] = tested on: non-expressing oocytes; type: cell-based, Xenopus laevis
Method in brief: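 Oocytes (ten per treatment, ≥4 independent frogs/days) were preloaded by injecting VF-6 in 25 nL ND96 at pH 5.0, 5.5, 6.0 or 7.0, or Na^+-free choline buffer, then uptake run 1.5 h, 27.5 °C, ND96 pH 5.5 by default. Internal concentrations assumed ~400 nL oocyte volume.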

[5] = target: T2, PfNT1 (Plasmodium falciparum, UniProt Q8IDM6); assay: cell-based; type: cell-based; details: […]
T2 construct: expressed in transfected cells; host or cells: Xenopus laevis oocytes (stage V-VI), cRNA-injected
Method in brief: (§2)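 Transport measured in Xenopus oocytes expressing the transporters, 1.5 h at 27.5 °C in ND96 pH 5.5 unless noted. For trans-stimulation, VF-6 injected in 25 nL ND96 at pH 5.0–7.0 or Na^+-free (choline) buffer; intracellular levels based on ~400 nL oocyte volume. Ten oocytes per treatment, ≥4 experiments.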

[6] = target: T3, PfCRT^Ecu1110 (Plasmodium falciparum, UniProt Q9N623, A220S/I356L/K76T/N326D); assay: cell-based; type: cell-based; details: […]
Method in brief: as §2

[7] = target: T1, PfCRT^3D7; assay: cell-based; type: cell-based; remark: listed apart in the source
Method in brief: as §2

[8] = target: T4, PfCRT^Dd2 (Plasmodium falciparum, UniProt Q9N623, A220S/I356T/K76T/M74I/N326S/N75E/Q271E/R371I); assay: cell-based; type: cell-based; details: […]
Method in brief: as §2

[9] = target: T3, PfCRT^Ecu1110; assay: [3H]CQ uptake into Xenopus oocytes, cis-inhibition by unlabelled solute; type: cell-based
Method in brief: as §1

[10] = target: T4, PfCRT^Dd2; assay: as above; type: cell-based
Method in brief: as §1

[11] = tested on: non-expressing oocytes; assay: cells; type: cell-based, Xenopus laevis; details: Xenopus laevis, Oocyte
Method in brief: as §1

[12] = read-out: Uptake of [3H]CQ (% PfCRT3D7 control), cis-inhibition
[13] = read-out: Uptake of [3H]CQ (% PfCRTDd2 control), cis-inhibition, PfCRT3D7, SEM
[14] = read-out: Uptake of [3H]CQ (% PfCRTDd2 control), trans-stimulation, PfNT1, SEM
[15] = read-out: Uptake of [3H]CQ (% PfNT1 control), trans-stimulation
[16] = read-out: PfCRT-mediated [3H]CQ transport, trans-stimulation (% PfCRT3D7 control)
[17] = read-out: Uptake of [3H]CQ (% PfCRT3D7 control), trans-stimulation
[18] = read-out: Uptake of [3H]CQ (% PfCRTDd2 control), trans-stimulation, PfCRT3D7, SEM
[19] = read-out: PfCRT-mediated [3H]CQ transport, cis-inhibition (% PfCRTEcu1110 control)
[20] = read-out: Uptake of [3H]CQ (% PfCRTDd2 control), cis-inhibition, PfCRTEcu1110, SEM
[21] = read-out: Uptake of [3H]CQ (% PfCRTEcu1110 control), cis-inhibition
[22] = read-out: [3H]CQ transport (% PfCRTEcu1110 control), cis-inhibition, PfCRTEcu1110, SEM
[23] = read-out: PfCRT-mediated [3H]CQ transport, cis-inhibition (% PfCRTDd2 control)
[24] = read-out: Uptake of [3H]CQ (% PfCRTDd2 control), cis-inhibition, PfCRTDd2, SEM
[25] = read-out: Uptake of [3H]CQ (% PfCRTDd2 control), cis-inhibition, non-expressing oocytes, SEM
[26] = read-out: Uptake of [3H]CQ (% non-expressing oocyte control), cis-inhibition

T2 sequence (Q8IDM6 whole entry): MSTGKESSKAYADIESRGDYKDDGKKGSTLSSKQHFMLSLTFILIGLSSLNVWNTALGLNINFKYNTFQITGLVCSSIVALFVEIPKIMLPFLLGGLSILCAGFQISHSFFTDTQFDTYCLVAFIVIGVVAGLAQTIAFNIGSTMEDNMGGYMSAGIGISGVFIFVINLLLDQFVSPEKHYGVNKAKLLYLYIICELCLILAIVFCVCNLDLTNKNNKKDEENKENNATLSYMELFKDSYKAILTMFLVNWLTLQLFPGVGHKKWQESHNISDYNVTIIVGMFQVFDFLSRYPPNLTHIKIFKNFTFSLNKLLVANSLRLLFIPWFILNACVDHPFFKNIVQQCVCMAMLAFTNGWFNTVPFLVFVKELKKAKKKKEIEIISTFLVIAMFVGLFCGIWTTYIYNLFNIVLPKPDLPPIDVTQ
T3 sequence (Q9N623 whole entry A220S/I356L/K76T/N326D): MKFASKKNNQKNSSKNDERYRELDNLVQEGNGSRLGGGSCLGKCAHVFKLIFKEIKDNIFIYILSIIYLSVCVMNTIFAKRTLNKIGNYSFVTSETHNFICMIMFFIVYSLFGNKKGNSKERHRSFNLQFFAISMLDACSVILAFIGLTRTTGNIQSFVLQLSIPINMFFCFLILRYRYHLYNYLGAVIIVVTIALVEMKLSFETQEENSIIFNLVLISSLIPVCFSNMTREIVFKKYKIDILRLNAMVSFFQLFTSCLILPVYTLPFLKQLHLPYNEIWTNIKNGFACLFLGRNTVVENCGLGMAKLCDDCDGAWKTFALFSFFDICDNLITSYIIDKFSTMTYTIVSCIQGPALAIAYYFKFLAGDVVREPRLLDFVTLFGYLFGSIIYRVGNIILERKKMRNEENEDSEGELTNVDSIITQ
T1 sequence (Q8IBZ9 59-398): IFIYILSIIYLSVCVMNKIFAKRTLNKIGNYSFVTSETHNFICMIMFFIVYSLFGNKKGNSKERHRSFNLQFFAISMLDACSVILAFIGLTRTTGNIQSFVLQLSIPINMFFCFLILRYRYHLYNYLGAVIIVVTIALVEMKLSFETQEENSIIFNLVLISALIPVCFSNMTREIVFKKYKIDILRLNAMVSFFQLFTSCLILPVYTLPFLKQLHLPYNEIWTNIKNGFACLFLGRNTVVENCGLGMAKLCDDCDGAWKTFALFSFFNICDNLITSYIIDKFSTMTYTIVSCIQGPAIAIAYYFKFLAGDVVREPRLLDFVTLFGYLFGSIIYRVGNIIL
T4 sequence (Q9N623 whole entry A220S/I356T/K76T/M74I/N326S/N75E/Q271E/R371I): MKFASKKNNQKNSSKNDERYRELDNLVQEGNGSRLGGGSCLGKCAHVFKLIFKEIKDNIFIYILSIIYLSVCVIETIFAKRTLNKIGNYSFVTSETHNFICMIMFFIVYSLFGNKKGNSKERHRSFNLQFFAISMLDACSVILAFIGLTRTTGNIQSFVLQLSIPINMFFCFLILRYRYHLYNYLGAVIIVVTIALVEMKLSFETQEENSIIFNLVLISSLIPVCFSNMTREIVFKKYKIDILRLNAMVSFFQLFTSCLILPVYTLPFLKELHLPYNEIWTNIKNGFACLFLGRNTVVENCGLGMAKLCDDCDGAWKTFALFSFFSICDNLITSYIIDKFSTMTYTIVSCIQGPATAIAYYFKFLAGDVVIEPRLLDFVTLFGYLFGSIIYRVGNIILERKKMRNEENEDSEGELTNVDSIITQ

CSCC[C@H](N)C(=O)O [L-methionine]
Compounds that have been tested as potential co-substrates but are not required for influx of VF-6 via PfCRT into the oocyte [1]: X | inhibition at 500 µM [2, 12]: 100 ± 3.6% | inhibition at 1000 µM [2, 12]: 100 ± 3.3% | inhibition at 2000 µM [2, 12]: 102 ± 2.5% | inhibition at 500 µM [2, 13]: 2.4 ± 0.07% | inhibition at 1000 µM [2, 13]: 2.2 ± 0.06% | inhibition at 2000 µM [2, 13]: 3.4 ± 0.07% | Tested as potential co-substrate but not required for influx of VF-6 via PfCRT into the oocyte [3]: X | Uptake of [3H]CQ (% non-expressing oocyte control), trans-stimulation [4]: 99 ± 3.8 % non-expressing oocyte control and 98 ± 4.2 % non-expressing oocyte control | Uptake of [3H]CQ (% PfCRTDd2 control), trans-stimulation, non-expressing oocytes ([4]; SEM): 2.4 ± 0.02 % PfCRTDd2 control and 2.8 ± 0.03 % PfCRTDd2 control | activity at 5000 µM [5, 14]: 2.2 ± 0.06% | activity at 45000 µM [5, 14]: 2.7 ± 0.04% | activity at 5000 µM [5, 15]: 100 ± 2.5% | activity at 45000 µM [5, 15]: 99 ± 2.6% | activity at 5000 µM ([6]; pH 5.5, read-out: Uptake of [3H]CQ (% PfCRTEcu1110 control), trans-stimulation, PfCRTEcu1110 oocytes, [test solute]i = 5 mM, total [3H]CQ transport, normalised to the oocyte type control): 98 ± 2.1% | activity at 45000 µM ([6]; pH 5.5, read-out: Uptake of [3H]CQ (% PfCRTEcu1110 control), trans-stimulation, PfCRTEcu1110 oocytes, [test solute]i = 45 mM (30 mM for some solutes due to solubility), total [3H]CQ transport, normalised to the oocyte type control): 100 ± 3.2% | activity at 5000 µM ([6]; read-out: Uptake of [3H]CQ (% PfCRTDd2 control), trans-stimulation, PfCRTEcu1110, total [3H]CQ transport, [test solute]i = 5 mM (intracellular), mean ± SEM, SEM): 35 ± 1.3% | activity at 45000 µM ([6]; read-out: Uptake of [3H]CQ (% PfCRTDd2 control), trans-stimulation, PfCRTEcu1110, total [3H]CQ transport, [test solute]i = 45 mM (intracellular; 30 mM for some solutes due to solubility), mean ± SEM, SEM): 36 ± 2.2% | [3H]CQ transport (% PfCRT3D7 control), trans-stimulation, PfCRT3D7 ([7]; SEM): 0.3 ± 0.03 % PfCRT3D7 control | activity at 5000 µM [7, 16]: 97 ± 2.1% | activity at 45000 µM [7, 16]: 97 ± 2.7% | activity at 5000 µM [7, 17]: 99 ± 3.6% | activity at 45000 µM [7, 17]: 99 ± 3.1% | activity at 5000 µM [7, 18]: 3.3 ± 0.03% | activity at 45000 µM [7, 18]: 3.3 ± 0.02% | activity at 5000 µM ([8]; pH 5.5, read-out: Uptake of [3H]CQ (% PfCRTDd2 control), trans-stimulation, PfCRTDd2, total [3H]CQ transport, [test solute]i = 5 mM (intracellular), mean ± SEM, SEM): 100 ± 3.2% | activity at 5000 µM ([8]; pH 5.5, read-out: Uptake of [3H]CQ (% PfCRTDd2 control), trans-stimulation, PfCRTDd2 oocytes, [test solute]i = 5 mM, total [3H]CQ transport, normalised to the oocyte type control): 100 ± 3.2% | activity at 45000 µM ([8]; pH 5.5, read-out: Uptake of [3H]CQ (% PfCRTDd2 control), trans-stimulation, PfCRTDd2 oocytes, [test solute]i = 45 mM (30 mM for some solutes due to solubility), total [3H]CQ transport, normalised to the oocyte type control): 99 ± 1% | inhibition at 500 µM [9, 19]: 94 ± 4.4% | inhibition at 1000 µM [9, 19]: 95 ± 3.1% | inhibition at 2000 µM [9, 19]: 98 ± 1.5% | inhibition at 500 µM [9, 20]: 31 ± 1.5% | inhibition at 1000 µM [9, 20]: 32 ± 1.1% | inhibition at 2000 µM [9, 20]: 33 ± 1.2% | inhibition at 500 µM [9, 21]: 96 ± 2.5% | inhibition at 1000 µM [9, 21]: 97 ± 5.3% | inhibition at 2000 µM [9, 21]: 100 ± 2.5% | inhibition at 500 µM [9, 22]: 28 ± 0.5% | inhibition at 1000 µM [9, 22]: 29 ± 0.5% | inhibition at 2000 µM [9, 22]: 30 ± 0.5% | inhibition at 500 µM [10, 23]: 96 ± 3.6% | inhibition at 2000 µM [10, 23]: 95 ± 5.1% | inhibition at 500 µM [10, 24]: 98 ± 2.4% | inhibition at 1000 µM [10, 24]: 100 ± 2.1% | inhibition at 2000 µM [10, 24]: 97 ± 2.4% | inhibition at 500 µM [11, 25]: 2.7 ± 0.03% | inhibition at 1000 µM [11, 25]: 2.5 ± 0.01% | inhibition at 2000 µM [11, 25]: 2.9 ± 0.04% | inhibition at 500 µM [11, 26]: 99 ± 3.6% | inhibition at 1000 µM [11, 26]: 99 ± 3.5% | inhibition at 2000 µM [11, 26]: 101 ± 4.6%

Source: publication PMC7413254 (Nature Communications, 2020)
